These results are taken from article PMC12466757, “1,5-Diarylidene-4-Piperidones as Promising Antifungal Candidates Against Cryptococcus neoformans” (Antibiotics, 2025).

Converted amounts (≈) assume the structure as drawn. Where only a bound is given, the exact number is not on record here.

Data set [1] deals with Enterobacter cloacae (DSM 30054). The data set is described as follows: Antibacterial liquid MIC determination, E. cloacae. Format: cell-based. Conditions: DSM30054, Gram-negative.
For data set [2], the system named is Cryptococcus neoformans (DSM11959). The experiment in a line: MIC assay against C. neoformans. It is filed as cell-based. Particulars: Cryptococcus neoformans, DSM11959, C. neoformans DSM 11959; lowest concentration totally inhibiting growth; 35 °C, 24–48 h.
The subject of data set [3] is Acinetobacter baumannii (DSM 30007). The experiment in a line: Antibacterial liquid MIC determination, A. baumannii. It is filed as cell-based. Conditions: DSM30007, Gram-negative.
A short description of data set [4]: in vitro. Conditions: human, Caco-2.
Data set [5] can be described thus: in vitro. Conditions: human.
A short description of data set [6]: in vitro. Particulars: human. The source holds these as a separate data set.
Data set [7] is described as follows: in vitro. Conditions: human. The source holds these as a separate data set.
A short description of data set [8]: in vitro. Particulars: human. The source holds these as a separate data set.
Data set [9] can be described thus: in vitro. Conditions: human. The source holds these as a separate data set.

As usually defined, the MIC is the lowest concentration that inhibits growth of the organism. Lower therefore signals inhibition by little substance. Consider `CCN1C/C(=C\c2ccc[nH]2)C(=O)/C(=C/c2ccc[nH]2)C1` [2k], for which the MIC in data set [1], in data set [2] and in data set [3] was 250 µM (≈ 70.3 µg/mL) each time.

Consider `CCCCOc1ccc(/C=C2\CN(C3CC3)C/C(=C\c3ccc(OCCCC)cc3OCCCC)C2=O)c(OCCCC)c1` [4h], for which the CC50 at 48 h in “in vitro [4]”, in the data set “in vitro [5]”, in “in vitro [6]”, in “in vitro [7]”, in the data set “in vitro [8]” and in the data set “in vitro [9]” was over 1000 µM each time. This compound also gave an MIC in data set [2] of 250 µM (≈ 151 µg/mL).
